Laboratory results taken from US12492403B2, “Aptamers and the use thereof in the treatment of cancer” (FUNDACIÓN PARA LA INVESTIGACIÓN BIOMÉDICA DEL HOSPITAL …, priority 2018, dated 2025).

B1: apMNK2F: precursor (parental) aptamer against MNK1, described in Garcia-Recio, Pinto-Diez et al. 2016 (nucleic acid)
DNA: GCGGATGAAGACTGGTGTGGGGTGGGCGGGCGGGGGTGGGGGTGGTATGGCGCGTTGGCCCTAAATACGAGCAAC
modifications: DNA, backbone and methylation of C not given here; further chemistry not fully specified

Key:
MCF7 cells [1] = assay: MTT activity assay, aptamers transfected with Lipofectamine 2000; format: cell-based, human; settings: MCF7, aptamer 250 nM, 48 hours after transfection
Procedure: (§1) FIG. 3. Effect of the aptamers on MTT activity of MCF7 and MDA-MB-231 cells. The cells were seeded in 96-well plates at a density of 10^4 cells/well. After 16-24 hours, they were transfected with aptamers apMNKQ1, apMNKQ2, apMNKQ3, and apMNKQ4 at 250 nM for 48 hours after which MTT activity assays were performed. The bars represent the mean±SEM of 3-6 independent experiments (*p<0.05, **p<0.01, and ***p<0.001 with respect to the control aptamer AT).
(§2) FIGS. 8A-8C. Effect of aptamer apMNKQ2 on MTT activity of breast cell lines. MCF7, MDA-MB-231, and MDA-MB-468 cells were seeded in 96-well plates at a density of 10^4 cells/well. […] The graphs represent the means±SEM of 3 independent experiments (*p<0.05, **p<0.01, and ***p<0.001 with respect to the control AT).
(§3) The Lipofectamine™ 2000 system (Invitrogen, USA) was used to treat cells with the different aptamers. To prepare the DNA-lipofectamine complex, lipofectamine and DNA were separately diluted in opti-MEM (Gibco, USA) and left to incubate at room temperature for 5 minutes. They were then mixed to form lipofectamine-DNA complexes and incubated for 20 minutes at room temperature. Finally, the mixture was added to the cells that had been washed twice with antibiotic-free medium to prevent the interference thereof with lipofectamine. The cells were incubated at 37° C. for 5 hours, after which the reagent was removed and a complete medium was added.
(§4) MTT activity. The cells were seeded in 96-well plates and after having been transfected, the culture medium was removed and 100 μL/well of MTT at 1 mg/ml in culture medium were added. The plates were incubated for 90 minutes in an incubator with a moisture-saturated environment at 37° C. and 5% CO2/[…] and 100 μL/well of a lysis solution (10% SDS and 10 mM HCl) were added for dissolving the crystals. After 48 hours, the reduction of MTT was determined by means of spectrophotometry in Infinite F200 (TECAN, Switzerland) at 540 nm.
(§5) The results were expressed as the percentage of viability with respect to the control or in absorbance units.

MDA-MB-231 cells [2] = assay: as above; format: cell-based, human; settings: MDA-MB-231, aptamer 250 nM, 48 hours after transfection
Procedure: as §1, §2, §3, §4, §5

MNK1 = assay: Recognition of the two isoforms of MNK1 by precursor and truncated aptamers; format: binding
MDA-MB-231 cells [3] = settings: cells with IC50 greater than 1 nM are considered resistant; cited from earlier work
eIF4E = assay: Western blot of phosphorylation, combined therapy study; format: cell-based, human; settings: MDA-MB-231 and MCF7 cells, 24 hours
Procedure: (§6) FIG. 22A & 22B. Combined therapy studies of apMNKQ2 and everolimus. […] The different antibodies used are indicated.
(§7) Seventy-two hours after treatment, MTT activity was measured.

AKT = assay: as above; format: cell-based, human; settings: MDA-MB-231 and MCF7 cells, 24 hours
Procedure: as §6, §7

ribosomal protein S6 = assay: as above; format: cell-based, human; settings: MDA-MB-231 and MCF7 cells, 24 hours
Procedure: as §6, §7

MCF7 cells [4] = settings: cells with IC50 greater than 1 nM are considered resistant; cited from earlier work
DNase I = settings: 1 unit of DNase I, 5 minutes at 37° C., same assay conditions (Garcia-Recio, Pinto-Diez et al. 2016); cited from earlier work

Row | Molecule | effect on MTT activity (MCF7 cells [1]) | inhibition of MTT activity (MDA-MB-231 cells [2]) | recognition of the two isoforms of MNK1 (MNK1a, MNK1b) (MNK1) | also measured
1 | 5′-GGGTGGTATGGCGCGTTGGCCC-3′ (DNA, backbone and methylation of C not given here; further chemistry not fully specified) [apMNKQ4, 22-nucleotide aptamer designed from apMNK2FT] | partial effect | about 15% |  | 
2 | 5′-TTTTTGGGGTGGGCGGGCGGGGGTGGGGGTGGTATGGCGCGTTGGCCC-3′ (DNA, backbone and methylation of C not given here; further chemistry not fully specified) [apMNK2FT, truncated 48-nucleotide aptamer derived from precursor aptamer apMNK2F] |  |  | recognized both isoforms in a similar manner | 
3 | 5′GGGTGGGGGTGGT-3′ (DNA, backbone not given here; further chemistry not fully specified) [apMNKQ3, 13-nucleotide aptamer designed from apMNK2FT] | partial effect | about 15% |  | 
4 | 5′TGGGGTGGGCGGGCGGGG-3′ (DNA, backbone and methylation of C not given here; further chemistry not fully specified) [apMNKQ1, 18-nucleotide aptamer designed from apMNK2FT based on G-quadruplex formation] | partial effect | 30% |  | 
5 | CO[C@H]1C[C@@H]2CC[C@@H](C)[C@@](O)(O2)C(=O)C(=O)N2CCCC[C@H]2C(=O)O[C@H]([C@H](C)C[C@@H]2CC[C@@H](OCCO)[C@H](OC)C2)CC(=O)[C@H](C)/C=C(\C)[C@@H](O)[C@@H](OC)C(=O)[C@H](C)C[C@H](C)/C=C/C=C/C=C/1C [everolimus, 40-O-(2-hydroxyethyl) derivative of sirolimus, reference compound] |  |  |  | sensitivity of the cell line to the drug (MDA-MB-231 cells [3]): resistant; phosphorylation of eIF4E (eIF4E): increased; phosphorylation of AKT (AKT): increased; phosphorylation of ribosomal protein S6 (dependent on mTOR activity) (ribosomal protein S6): inhibiting mTOR; sensitivity of the cell line to the drug (MCF7 cells [4]): resistant
6 | B1 |  |  | higher affinity for MNK1b | stability (DNase I): 0%
